Tests used:
[1] = tested on: immune response to tetanus toxoid vaccine; assay: PNPi as adjuvant in tetanus toxoid vaccine efficacy study (mouse); format: in vivo; details: mice, p.o., ELISA
[2] = tested on: L. monocytogenes (ATCC Strain35152, hemolytic substrain); assay: Mouse model of L. monocytogenes infection; details: Balb/c mice infected i.v. with 1×10^6 CFU; 30 mg/kg PO or IP, 2 mg/kg drinking water; FIGS. 7 and 9
B16 tumors = assay: Syngeneic mouse melanoma model; format: in vivo, C57BL/6 mice
Description: Method: Cancer cells were injected subcutaneously in right flank of each mouse, 1×10^4 cells in 0.1 ml PBS with 20% Matrigel. Treatment with the NTR001 was initiated on day 6 after injection of tumor cells. Tumor volume and survival were recorded every 3-4 days.

human TLR4 = molecular target: T1, human TLR4 (Homo sapiens, UniProt O00206+Q9Y6Y9); assay: TLR ligand screening: NF-κB activation (SEAP reporter) in HEK293 cells expressing TLR4; format: cell-based; details: one concentration: Guanosine 100 uM, NTR001 10 uM, Inosine 100 uM; FIG. 2
T1 construct: expressed in transfected cells; host or cells: HEK293
T1 sequence (O00206 24-839): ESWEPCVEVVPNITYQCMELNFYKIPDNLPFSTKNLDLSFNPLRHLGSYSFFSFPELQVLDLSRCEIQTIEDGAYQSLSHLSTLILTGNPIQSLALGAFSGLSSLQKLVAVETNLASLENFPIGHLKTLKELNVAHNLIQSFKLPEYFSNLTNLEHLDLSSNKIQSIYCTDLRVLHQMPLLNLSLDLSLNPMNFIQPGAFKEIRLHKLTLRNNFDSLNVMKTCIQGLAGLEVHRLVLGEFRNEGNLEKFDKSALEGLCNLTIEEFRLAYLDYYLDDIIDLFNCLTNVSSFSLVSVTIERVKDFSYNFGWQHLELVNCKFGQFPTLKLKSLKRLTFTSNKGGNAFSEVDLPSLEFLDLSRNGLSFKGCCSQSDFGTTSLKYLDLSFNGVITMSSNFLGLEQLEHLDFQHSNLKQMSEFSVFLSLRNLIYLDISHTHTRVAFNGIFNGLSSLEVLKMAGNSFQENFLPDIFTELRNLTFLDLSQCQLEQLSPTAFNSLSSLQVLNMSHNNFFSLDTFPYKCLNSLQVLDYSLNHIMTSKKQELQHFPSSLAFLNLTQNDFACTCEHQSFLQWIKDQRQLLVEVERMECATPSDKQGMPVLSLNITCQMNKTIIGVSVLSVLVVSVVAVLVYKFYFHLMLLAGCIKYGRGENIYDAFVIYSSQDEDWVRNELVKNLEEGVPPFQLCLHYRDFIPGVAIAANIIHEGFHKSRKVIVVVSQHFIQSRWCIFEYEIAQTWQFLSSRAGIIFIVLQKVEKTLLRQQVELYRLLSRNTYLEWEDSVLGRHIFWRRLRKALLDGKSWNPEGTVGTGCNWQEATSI
T1 sequence (Q9Y6Y9 17-160 limits assumed): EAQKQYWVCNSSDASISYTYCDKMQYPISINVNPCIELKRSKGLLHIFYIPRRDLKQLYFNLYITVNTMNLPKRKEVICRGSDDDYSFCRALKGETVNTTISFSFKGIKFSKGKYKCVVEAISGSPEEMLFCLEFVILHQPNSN
Description: (§1) Method: TLR stimulation is tested by assessing NF-κB activation in HEK293 cells expressing a given TLR. The Secreted Embryonic Alkaline Phosphatase (SEAP) reporter is under the control of a promoter inducible by the transcription factor NF-κB. This reporter gene allows the monitoring of signaling through the TLR, based on the activation of NF-κB. The compounds are evaluated at one concentration and compared to control ligands. This step is performed in triplicate.

human TLR7 = molecular target: T2, human TLR7 (Homo sapiens, UniProt Q9NYK1); assay: TLR ligand screening: NF-κB activation (SEAP reporter) in HEK293 cells expressing TLR7; format: cell-based; details: one concentration: NTR001 10 uM, Inosine 100 uM; FIG. 2
T2 construct: expressed in transfected cells; host or cells: HEK293
T2 sequence (Q9NYK1 27-1049): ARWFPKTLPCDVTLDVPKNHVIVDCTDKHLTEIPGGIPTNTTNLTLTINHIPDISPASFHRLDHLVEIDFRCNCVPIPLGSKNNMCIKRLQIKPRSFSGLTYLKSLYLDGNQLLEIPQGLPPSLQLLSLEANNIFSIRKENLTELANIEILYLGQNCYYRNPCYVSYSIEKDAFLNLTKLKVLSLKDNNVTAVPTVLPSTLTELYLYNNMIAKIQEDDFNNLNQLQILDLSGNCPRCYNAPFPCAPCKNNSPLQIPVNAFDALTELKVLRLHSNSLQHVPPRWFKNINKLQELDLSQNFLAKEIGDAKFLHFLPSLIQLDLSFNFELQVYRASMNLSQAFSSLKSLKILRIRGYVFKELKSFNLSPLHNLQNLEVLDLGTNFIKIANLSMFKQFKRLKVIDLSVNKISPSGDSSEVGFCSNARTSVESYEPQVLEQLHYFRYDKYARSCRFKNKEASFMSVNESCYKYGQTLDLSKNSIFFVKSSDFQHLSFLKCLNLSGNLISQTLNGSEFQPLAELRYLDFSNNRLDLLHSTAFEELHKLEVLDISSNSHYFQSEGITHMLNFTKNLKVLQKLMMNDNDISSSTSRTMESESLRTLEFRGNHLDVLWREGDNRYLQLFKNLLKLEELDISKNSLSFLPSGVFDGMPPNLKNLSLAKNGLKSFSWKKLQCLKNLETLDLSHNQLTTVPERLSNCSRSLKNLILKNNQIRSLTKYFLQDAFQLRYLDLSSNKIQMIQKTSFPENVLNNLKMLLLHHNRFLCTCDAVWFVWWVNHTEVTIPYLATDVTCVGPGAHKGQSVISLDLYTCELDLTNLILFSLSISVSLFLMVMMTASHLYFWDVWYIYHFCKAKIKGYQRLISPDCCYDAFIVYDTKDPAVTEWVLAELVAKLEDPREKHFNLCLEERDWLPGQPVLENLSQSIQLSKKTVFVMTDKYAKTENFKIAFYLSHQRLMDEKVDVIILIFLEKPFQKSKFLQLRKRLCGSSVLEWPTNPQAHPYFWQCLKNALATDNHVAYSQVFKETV
Description: as §1

human TLR2 = molecular target: T3, human TLR2 (Homo sapiens, UniProt O60603); assay: TLR ligand screening: NF-κB activation (SEAP reporter) in HEK293 cells expressing TLR2; format: cell-based; details: one concentration: Guanosine 100 uM, NTR001 10 uM, Inosine 100 uM; FIG. 2
T3 construct: expressed in transfected cells; host or cells: HEK293
T3 sequence (O60603 21-784): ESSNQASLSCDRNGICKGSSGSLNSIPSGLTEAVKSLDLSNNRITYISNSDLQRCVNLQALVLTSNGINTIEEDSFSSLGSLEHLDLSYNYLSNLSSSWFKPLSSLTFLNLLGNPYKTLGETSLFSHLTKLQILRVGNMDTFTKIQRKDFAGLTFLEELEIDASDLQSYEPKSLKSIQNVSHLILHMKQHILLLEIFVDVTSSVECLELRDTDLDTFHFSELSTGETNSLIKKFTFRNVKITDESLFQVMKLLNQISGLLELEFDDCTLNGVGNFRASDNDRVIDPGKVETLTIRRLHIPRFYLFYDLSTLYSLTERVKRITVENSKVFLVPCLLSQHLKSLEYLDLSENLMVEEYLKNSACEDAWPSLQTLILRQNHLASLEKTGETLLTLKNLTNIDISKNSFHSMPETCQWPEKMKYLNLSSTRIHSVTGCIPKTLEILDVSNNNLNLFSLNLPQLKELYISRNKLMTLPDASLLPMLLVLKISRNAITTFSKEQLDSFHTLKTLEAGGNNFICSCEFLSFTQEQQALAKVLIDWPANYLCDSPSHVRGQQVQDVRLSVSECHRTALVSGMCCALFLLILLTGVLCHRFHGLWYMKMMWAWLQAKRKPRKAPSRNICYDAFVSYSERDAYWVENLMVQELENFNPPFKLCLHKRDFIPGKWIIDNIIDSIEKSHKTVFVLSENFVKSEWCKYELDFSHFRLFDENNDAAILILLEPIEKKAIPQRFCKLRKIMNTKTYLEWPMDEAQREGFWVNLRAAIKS
Description: as §1

human TLR8 = molecular target: T4, human TLR8 (Homo sapiens, UniProt Q9NR97); assay: TLR ligand screening: NF-κB activation (SEAP reporter) in HEK293 cells expressing TLR8; format: cell-based; details: one concentration: NTR001 10 uM, Inosine 100 uM; FIG. 2
T4 construct: expressed in transfected cells; host or cells: HEK293
T4 sequence (Q9NR97 27-1041): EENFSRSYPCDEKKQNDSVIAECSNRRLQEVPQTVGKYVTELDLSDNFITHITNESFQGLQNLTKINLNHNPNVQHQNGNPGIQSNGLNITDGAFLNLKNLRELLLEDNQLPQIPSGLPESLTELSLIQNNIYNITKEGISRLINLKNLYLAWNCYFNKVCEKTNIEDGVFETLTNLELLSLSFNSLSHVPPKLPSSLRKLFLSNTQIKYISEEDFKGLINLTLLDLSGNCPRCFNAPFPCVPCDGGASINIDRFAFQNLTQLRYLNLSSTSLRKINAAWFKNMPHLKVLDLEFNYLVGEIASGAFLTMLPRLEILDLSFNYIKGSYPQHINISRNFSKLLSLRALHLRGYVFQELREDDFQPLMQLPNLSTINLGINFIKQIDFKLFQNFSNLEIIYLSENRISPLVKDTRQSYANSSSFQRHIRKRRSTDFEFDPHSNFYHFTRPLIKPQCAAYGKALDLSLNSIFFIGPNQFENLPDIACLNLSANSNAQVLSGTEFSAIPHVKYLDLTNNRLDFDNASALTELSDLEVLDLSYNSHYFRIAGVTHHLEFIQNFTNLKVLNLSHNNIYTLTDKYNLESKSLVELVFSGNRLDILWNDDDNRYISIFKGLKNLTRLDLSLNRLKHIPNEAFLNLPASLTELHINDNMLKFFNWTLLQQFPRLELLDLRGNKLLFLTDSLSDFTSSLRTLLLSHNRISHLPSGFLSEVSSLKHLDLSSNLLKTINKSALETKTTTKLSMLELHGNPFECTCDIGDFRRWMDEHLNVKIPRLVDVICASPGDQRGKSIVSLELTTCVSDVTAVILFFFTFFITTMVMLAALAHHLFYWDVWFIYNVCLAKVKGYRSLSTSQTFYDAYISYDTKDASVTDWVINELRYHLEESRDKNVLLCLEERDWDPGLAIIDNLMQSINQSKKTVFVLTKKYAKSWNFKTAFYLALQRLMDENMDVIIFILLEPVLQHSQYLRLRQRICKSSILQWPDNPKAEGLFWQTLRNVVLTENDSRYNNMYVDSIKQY
Description: as §1

With `O=c1[nH]cnc2c([C@@H]3N[C@H](CO)[C@@H](O)[C@H]3O)c[nH]c12` [NTR001, 7-[(2S,3S,4R,5R)-3,4-dihydroxy-5-(hydroxymethyl)-2-pyrrolidinyl]-1,5-dihydro-4H-pyrrolo [3,2-d]pyrimidin-4-one] the “serum tetanus toxoid antibody titers compared to the vehicle treated group” value ([1]; 30 mg/kg (6 days of treatment) and 60 mg/kg (3 days of treatment), day 38, FIG. 3) was “significantly elevated”, the “serum interferon-g compared to the vehicle treated group” value ([1]; high dose group 60 mg/kg, day 30, FIG. 4) was “elevated” and the weight loss [2] was “significant decrease in weight loss”. The tumor volume (B16 tumors; B16 tumors in C57BL/6 mice, treatment from day 6, FIG. 5) was “significant decrease”, the survival (B16 tumors; NTR001 as single agent (30 mg/kg PO week on/off; 5 mg/kg drinking water 28 days), FIG. 6) was 0-20% and the “stimulatory effect on human TLR4” value (human TLR4) was “do not exhibit a stimulatory effect”. The “stimulatory effect on human TLR7” value (human TLR7) was “do not exhibit a stimulatory effect”, the “stimulatory effect on human TLR2” value (human TLR2) was “do not exhibit a stimulatory effect” and the “stimulatory effect on human TLR8” value (human TLR8) was “do not exhibit a stimulatory effect”.

In the case of `OC[C@H]1O[C@@H](n2cnc3c(O)ncnc32)[C@H](O)[C@@H]1O` [Inosine], the “stimulatory effect on human TLR4” value (human TLR4) is reported as “do not exhibit a stimulatory effect”, the “stimulatory effect on human TLR7” value (human TLR7) is reported as “do not exhibit a stimulatory effect” and the “stimulatory effect on human TLR2” value (human TLR2) is reported as “do not exhibit a stimulatory effect”. For the same compound, the “stimulatory effect on human TLR8” value (human TLR8) was “do not exhibit a stimulatory effect”.

— US9452217B2, “Methods for potentiating immune response for the treatment of infectious diseases and cancer” (Nitor Therapeutics, priority 2013, dated 2016)
